{"source": "patent US10711011B2", "about": "“Substituted oxazolidines as anti-bacterial agents” (BUGWORKS RESEARCH, INC., priority 2016, dated 2020)", "key": {"[1]": {"system": "K. pneumoniae (Kpn) clinical strains", "assay": "MIC50 and MIC90 studies using clinical strains (CLSI guidelines)", "type": "cell-based"}, "[2]": {"system": "E. coli clinical strains", "assay": "MIC50 and MIC90 studies using clinical strains (CLSI guidelines)", "type": "cell-based"}, "[3]": {"system": "K. pneumoniae ATCC 13883", "assay": "Minimum Inhibitory Concentration (MIC) in LB media", "type": "cell-based, Klebsiella pneumoniae", "details": "for Minimum Inhibitory Concentration K. pneumoniae ATCC 13883: LB Media", "text": "(§1) The compounds of Formula I are of interest due to their potent antibacterial effects. The ability of the invention compounds disclosed herein to achieve an antibacterial effect may be evaluated with regard to their ability to inhibit the growth of bacterial species like Escherichia coli ATCC 25922, Staphylococcus aureus ATCC 29213, Klebsiella pneumoniae ATCC 13883, Acinetobacter baumannii ATCC 19606, Pseudomonas aurigenosa ATCC 27853, Enterococcus faecalis ATCC 29212 and Enterococcus faecalis ATCC 29212 using an assay based on the following Minimum Inhibitory Concentration (MIC) protocol:\n(§2) The test bacteria are grown in Luria Bertani Broth (HIMEDIA M1245), 25 grams of the powder is dissolved in 1000 ml distilled water and sterilized by autoclaving at 15 lbs pressure (121° C.) for 20 minutes. The medium sterility is checked by incubating at 37° C. for a period of 48 h.\n(§3) Bacterial cultures that are stored as glycerol stocks at −80° C. are sub cultured on LB agar plates to obtain isolated colonies. A single colony of each strain is cultured in LB broth. The cultures are incubated at 37° C., 200 rpm till they reach an optical density (OD at 600 nm) of 0.8 to 1. […] Test compounds are dissolved in dimethyl sulfoxide (DMSO) to a stock concentration of 4 mg/ml. A twofold dilution series of this DMSO stock is prepared in a 96 well V bottom microtitre plate from rows A to H. A 3 μL volume of these dilutions are transferred to a 96-well flat bottom microtitre assay plate. Controls to monitor the effects of DMSO and media sterility are included. Each well is inoculated with 150 μL of the above diluted culture. The plates are incubated at 37° C. overnight in a humidified incubator. The following morning, the plates are read using a Spectrophotometer at 600 nm wavelength. […] The antibacterial activity (MIC) determined against representative Gram positive (S. aureus, E. faecalis) and Gram negative (E. coli, P. aurigenosa, K. pneumoniae and A. baumannii) pathogen were reported Table 1."}, "[4]": {"system": "E. coli ATCC 25922", "assay": "Minimum Inhibitory Concentration (MIC) in LB media", "type": "cell-based, Escherichia coli", "details": "for Minimum Inhibitory Concentration E. coli ATCC 25922: LB Media", "text": "as §1, §2, §3"}, "[5]": {"system": "P. aurigenosa (Pae) clinical strains", "assay": "MIC50 and MIC90 studies using clinical strains (CLSI guidelines)", "type": "cell-based"}, "[6]": {"system": "E. faecalis ATCC 29212", "assay": "Minimum Inhibitory Concentration (MIC) in LB media", "type": "cell-based, Enterococcus faecalis", "text": "as §1, §2, §3"}, "[7]": {"system": "A. baumannii ATCC 19606", "assay": "Minimum Inhibitory Concentration (MIC) in LB media", "type": "cell-based, Acinetobacter baumannii", "details": "for Minimum Inhibitory Concentration A. baumannii ATCC 19606: LB Media", "text": "as §1, §2, §3"}, "[8]": {"system": "A. baumannii (Aba) clinical strains", "assay": "MIC50 and MIC90 studies using clinical strains (CLSI guidelines)", "type": "cell-based"}, "[9]": {"system": "S. aureus ATCC 29213", "assay": "Minimum Inhibitory Concentration (MIC) in LB media", "type": "cell-based, Staphylococcus aureus", "details": "for Minimum Inhibitory Concentration S. aureus ATCC 29213: LB Media", "text": "as §1, §2, §3"}, "[10]": {"system": "P. aurigenosa ATCC 27853", "assay": "Minimum Inhibitory Concentration (MIC) in LB media", "type": "cell-based, Pseudomonas aurigenosa", "details": "for Minimum Inhibitory Concentration P. aurigenosa ATCC 27853: LB Media", "text": "as §1, §2, §3"}, "[11]": {"target": "E. coli topoisomerase IV (Escherichia coli, UniProt P0AFI2+P20083)", "sequence (P0AFI2 whole entry)": "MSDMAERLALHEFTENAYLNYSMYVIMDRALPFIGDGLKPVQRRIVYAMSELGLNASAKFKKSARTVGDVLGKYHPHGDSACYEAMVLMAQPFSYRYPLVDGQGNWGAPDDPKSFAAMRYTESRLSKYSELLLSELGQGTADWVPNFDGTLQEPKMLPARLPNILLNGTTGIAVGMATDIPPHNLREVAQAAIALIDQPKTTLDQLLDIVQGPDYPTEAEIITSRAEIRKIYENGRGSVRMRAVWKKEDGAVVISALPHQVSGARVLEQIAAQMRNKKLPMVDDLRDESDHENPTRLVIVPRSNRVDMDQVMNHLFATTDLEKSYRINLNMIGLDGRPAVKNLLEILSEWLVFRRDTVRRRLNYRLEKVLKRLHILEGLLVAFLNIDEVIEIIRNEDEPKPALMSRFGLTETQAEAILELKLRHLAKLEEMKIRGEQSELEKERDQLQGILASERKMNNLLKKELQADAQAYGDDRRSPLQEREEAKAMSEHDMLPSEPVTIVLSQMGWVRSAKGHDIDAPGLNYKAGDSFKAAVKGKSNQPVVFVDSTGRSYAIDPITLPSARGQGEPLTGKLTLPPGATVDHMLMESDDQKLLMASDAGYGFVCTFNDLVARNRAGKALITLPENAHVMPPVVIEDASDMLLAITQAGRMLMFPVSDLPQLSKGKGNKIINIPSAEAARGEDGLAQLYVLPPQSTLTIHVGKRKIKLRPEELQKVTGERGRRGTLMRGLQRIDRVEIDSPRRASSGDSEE", "sequence (P20083 whole entry)": "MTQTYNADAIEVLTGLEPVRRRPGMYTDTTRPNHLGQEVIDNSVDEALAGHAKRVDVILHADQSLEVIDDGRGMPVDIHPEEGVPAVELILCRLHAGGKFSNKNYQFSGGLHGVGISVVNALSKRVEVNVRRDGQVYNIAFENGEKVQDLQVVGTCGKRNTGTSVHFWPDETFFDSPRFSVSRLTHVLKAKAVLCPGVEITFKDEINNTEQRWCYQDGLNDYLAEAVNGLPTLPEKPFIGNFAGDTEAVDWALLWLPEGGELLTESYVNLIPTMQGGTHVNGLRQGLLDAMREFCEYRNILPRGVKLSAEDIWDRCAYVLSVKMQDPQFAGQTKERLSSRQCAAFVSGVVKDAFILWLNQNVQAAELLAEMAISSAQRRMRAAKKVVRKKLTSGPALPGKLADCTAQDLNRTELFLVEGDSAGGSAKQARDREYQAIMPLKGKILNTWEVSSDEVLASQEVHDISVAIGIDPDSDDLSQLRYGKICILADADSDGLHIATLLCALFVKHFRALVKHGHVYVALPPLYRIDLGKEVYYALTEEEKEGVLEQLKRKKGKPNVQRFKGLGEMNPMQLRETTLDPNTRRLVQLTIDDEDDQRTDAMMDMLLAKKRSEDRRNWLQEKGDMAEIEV", "assay": "biochemical", "details": "decatenation assay; read-out: E. coli Topo IV IC50"}, "[12]": {"target": "E. coli DNA gyrase (Escherichia coli, UniProt P0AES4+P0AES6)", "sequence (P0AES4 whole entry, one chain of several)": "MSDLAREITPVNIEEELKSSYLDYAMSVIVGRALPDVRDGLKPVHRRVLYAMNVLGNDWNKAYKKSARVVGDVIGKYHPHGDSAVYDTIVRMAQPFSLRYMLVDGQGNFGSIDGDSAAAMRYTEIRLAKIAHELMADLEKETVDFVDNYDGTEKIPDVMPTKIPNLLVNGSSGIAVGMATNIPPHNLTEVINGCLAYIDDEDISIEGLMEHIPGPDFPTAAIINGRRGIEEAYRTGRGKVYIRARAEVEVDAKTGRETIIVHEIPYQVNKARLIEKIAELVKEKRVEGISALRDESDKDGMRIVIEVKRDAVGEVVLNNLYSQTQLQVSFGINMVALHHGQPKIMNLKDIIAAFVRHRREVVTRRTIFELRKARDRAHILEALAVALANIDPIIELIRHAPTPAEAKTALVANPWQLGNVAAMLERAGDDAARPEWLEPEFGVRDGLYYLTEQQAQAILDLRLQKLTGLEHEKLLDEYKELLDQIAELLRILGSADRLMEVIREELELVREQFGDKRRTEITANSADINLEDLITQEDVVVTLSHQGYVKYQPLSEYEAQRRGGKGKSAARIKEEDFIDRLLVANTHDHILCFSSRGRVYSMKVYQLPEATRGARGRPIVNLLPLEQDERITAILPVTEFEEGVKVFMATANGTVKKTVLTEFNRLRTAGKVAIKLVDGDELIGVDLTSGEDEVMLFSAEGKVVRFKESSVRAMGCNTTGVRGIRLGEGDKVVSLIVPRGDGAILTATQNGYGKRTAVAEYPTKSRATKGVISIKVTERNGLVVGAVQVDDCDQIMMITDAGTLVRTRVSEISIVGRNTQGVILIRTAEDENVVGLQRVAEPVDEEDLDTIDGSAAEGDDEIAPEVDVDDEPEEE", "assay": "biochemical", "details": "supercoiling assay"}, "[13]": {"details": "Klebsiella pneumoniae, Kpn, 211 strains"}, "[14]": {"details": "Escherichia coli, E. coli, 201 strains"}, "[15]": {"details": "Acinetobacter baumannii, Aba, 169 strains"}}}
{"smiles": "CN1C(=O)Cc2ccc(F)c(CCNCCC3CN(c4ccc5c(n4)NC(=O)CO5)C(=O)O3)c21", "note": "(single isomer, unassigned) [Example 14, 6-(5-(2-((2-(6-fluoro-1-methyl-2-oxoindolin-7-yl)ethyl)amino)ethyl)-2-oxooxazolidin-3-yl)-2H-pyrido[3,2-b][1,4]oxazin-3(4H)-one]", "values": [{"measurement": "MIC50", "setting": "[1]; [13]", "result": 1, "unit": "µg/mL"}, {"measurement": "MIC90", "setting": "[1]; [13]", "result": 4, "unit": "µg/mL"}, {"measurement": "MIC ATCC13883", "setting": "[1]; Kpn reference strain ATCC13883, unit inferred", "result": 0.25, "unit": "µg/mL"}, {"measurement": "Minimum (MIC)", "setting": "[1]; Kpn, 211 strains, unit inferred", "result": 0.06, "unit": "µg/mL"}, {"measurement": "MIC ATCC25922", "setting": "[2]; E. coli reference strain ATCC25922, no unit in this row (MIC50/MIC90 rows: μg/ml)", "result": 0.06, "unit": "µg/mL"}, {"measurement": "Minimum (MIC)", "setting": "[2]; E. coli, 201 strains, unit inferred", "result": 0.03, "unit": "µg/mL"}, {"measurement": "MIC50", "setting": "[2]; [14]", "result": 0.25, "unit": "µg/mL"}, {"measurement": "MIC90", "setting": "[2]; [14]", "result": 0.5, "unit": "µg/mL"}, {"measurement": "Minimum Inhibitory Concentration K. pneumoniae ATCC 13883", "setting": "[3]", "result": 0.125, "unit": "µg/mL"}, {"measurement": "Minimum Inhibitory Concentration E. coli ATCC 25922", "setting": "[4]", "result": 0.03, "unit": "µg/mL"}, {"measurement": "MIC ATCC27853", "setting": "[5]; Pae reference strain ATCC27853, unit inferred", "result": 0.5, "unit": "µg/mL"}, {"measurement": "MIC50", "setting": "[5]; Pae, 215 strains", "result": 0.5, "unit": "µg/mL"}, {"measurement": "MIC90", "setting": "[5]; Pae, 215 strains", "result": 1, "unit": "µg/mL"}, {"measurement": "Minimum (MIC)", "setting": "[5]; Pae, 215 strains, unit not given, in µg/mL", "result": 0.03125}, {"measurement": "Minimum Inhibitory Concentration E. faecalis ATCC 29212", "setting": "[6]", "result": 0.25, "unit": "µg/mL"}, {"measurement": "Minimum Inhibitory Concentration A. baumannii ATCC 19606", "setting": "[7]", "result": 0.03, "unit": "µg/mL"}, {"measurement": "MIC ATCC19606", "setting": "[8]; Aba reference strain ATCC19606, unit inferred", "result": 0.06, "unit": "µg/mL"}, {"measurement": "Minimum (MIC)", "setting": "[8]; Aba, 169 strains, unit not given, in µg/mL", "result": 0.015}, {"measurement": "MIC50", "setting": "[8]; [15]", "result": 0.25, "unit": "µg/mL"}, {"measurement": "MIC90", "setting": "[8]; [15]", "result": 0.5, "unit": "µg/mL"}, {"measurement": "Minimum Inhibitory Concentration S. aureus ATCC 29213", "setting": "[9]", "result": 0.03, "unit": "µg/mL"}, {"measurement": "Minimum Inhibitory Concentration P. aurigenosa ATCC 27853", "setting": "[10]", "result": 0.5, "unit": "µg/mL"}, {"measurement": "IC50", "setting": "[11]", "result": 36, "unit": "nM"}, {"measurement": "IC50", "setting": "[12]", "result": 100, "unit": "nM"}]}
{"smiles": "CN1C(=O)Cc2ccc(F)c(CNCCCC3CN(c4ccc5c(c4)NC(=O)CO5)C(=O)O3)c21", "note": "(stereo not shown) [Example 12, 6-(5-(3-(((6-fluoro-1-methyl-2-oxoindolin-7-yl)methyl)amino)propyl)-2-oxooxazolidin-3-yl)-2H-benzo[b][1,4]oxazin-3(4H)-one]", "values": [{"measurement": "MIC", "setting": "[3]; Klebsiella pneumoniae, ATCC13883, LB Media", "result": 0.5, "unit": "µg/mL"}, {"measurement": "MIC", "setting": "[4]; Escherichia coli, ATCC25922, LB Media", "result": 0.25, "unit": "µg/mL"}, {"measurement": "MIC", "setting": "[6]; Enterococcus faecalis, ATCC29212", "result": 0.5, "unit": "µg/mL"}, {"measurement": "MIC", "setting": "[7]; Acinetobacter baumannii, ATCC19606, LB Media", "result": 0.13, "unit": "µg/mL"}, {"measurement": "MIC", "setting": "[9]; Staphylococcus aureus, ATCC29213, LB Media", "result": 0.25, "unit": "µg/mL"}, {"measurement": "MIC", "setting": "[10]; Pseudomonas, ATCC27853, LB Media", "result": 2, "unit": "µg/mL"}, {"measurement": "IC50", "setting": "[11]", "result": 600, "unit": "nM"}, {"measurement": "IC50", "setting": "[12]", "result": 89, "unit": "nM"}]}
{"smiles": "CN1C(=O)Cc2ccc(F)c(CNCCCC3CN(c4ccc5c(n4)NC(=O)CO5)C(=O)O3)c21", "note": "(single isomer, unassigned) [Example 10, 6-(5-(3-(((6-fluoro-1-methyl-2-oxoindolin-7-yl)methyl)amino)propyl)-2-oxooxazolidin-3-yl)-2H-pyrido[3,2-b][1,4]oxazin-3(4H)-one]", "values": [{"measurement": "Minimum Inhibitory Concentration K. pneumoniae ATCC 13883", "setting": "[3]", "result": 0.25, "unit": "µg/mL"}, {"measurement": "Minimum Inhibitory Concentration E. coli ATCC 25922", "setting": "[4]", "result": 0.125, "unit": "µg/mL"}, {"measurement": "Minimum Inhibitory Concentration E. faecalis ATCC 29212", "setting": "[6]", "result": 0.5, "unit": "µg/mL"}, {"measurement": "Minimum Inhibitory Concentration A. baumannii ATCC 19606", "setting": "[7]", "result": 0.06, "unit": "µg/mL"}, {"measurement": "Minimum Inhibitory Concentration S. aureus ATCC 29213", "setting": "[9]", "result": 0.06, "unit": "µg/mL"}, {"measurement": "Minimum Inhibitory Concentration P. aurigenosa ATCC 27853", "setting": "[10]", "result": 1, "unit": "µg/mL"}, {"measurement": "IC50", "setting": "[11]", "result": 398, "unit": "nM"}, {"measurement": "IC50", "setting": "[12]", "result": 106, "unit": "nM"}]}
